Source: paper PMC3224040 (ACS medicinal chemistry letters, 2011)
Like-named read-outs stand apart in the source and are kept apart here.

Assays:
dopamine D3 receptor = dopamine D3 receptor (Rattus norvegicus, UniProt P19020); assay: Yawning assay in rats; settings: for High doses at which D2 agonist effects may be observed: antagonist interaction study in yawning assay
D2 receptor = D2 receptor (Rattus norvegicus, UniProt P61169); settings: for Decrease in core body temperature: pretreatment of L-741,626 at 1 mg/kg; for Dose at onset of modest D2 agonist activity: yawning and hypothermia data
D3 receptor [1] = settings: cited from earlier work; for Selectivity over the D2 receptor: D3 agonists, in vitro binding data; for Selectivity for D3 over D2: D3 antagonists
[2] = cited from earlier work
D3 receptor [3] = target: D3 receptor (Rattus norvegicus, UniProt P19020); settings: rat brain binding, ratio of Ki values
Aqueous solubility = type: physicochemical; settings: aqueous medium (not further specified)
human D1 receptor = human D1 receptor (Homo sapiens, UniProt P21728); assay: Binding to cloned human D1 receptor; settings: at 10,000 nM
human D1 receptor, sequence (P21728 whole entry): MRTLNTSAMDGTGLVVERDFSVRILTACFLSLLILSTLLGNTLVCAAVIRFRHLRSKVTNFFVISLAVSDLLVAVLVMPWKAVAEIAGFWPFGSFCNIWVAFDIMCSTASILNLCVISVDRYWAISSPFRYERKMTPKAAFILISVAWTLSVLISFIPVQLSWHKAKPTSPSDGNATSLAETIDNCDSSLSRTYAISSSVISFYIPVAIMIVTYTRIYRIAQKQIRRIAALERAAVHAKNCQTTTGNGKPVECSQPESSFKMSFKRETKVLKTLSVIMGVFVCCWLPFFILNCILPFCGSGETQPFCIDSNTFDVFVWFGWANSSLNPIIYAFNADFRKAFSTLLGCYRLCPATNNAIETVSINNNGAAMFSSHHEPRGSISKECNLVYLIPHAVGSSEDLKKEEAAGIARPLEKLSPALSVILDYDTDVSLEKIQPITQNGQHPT

D3 receptor (Rattus norvegicus, UniProt P19020), sequence (P19020 whole entry): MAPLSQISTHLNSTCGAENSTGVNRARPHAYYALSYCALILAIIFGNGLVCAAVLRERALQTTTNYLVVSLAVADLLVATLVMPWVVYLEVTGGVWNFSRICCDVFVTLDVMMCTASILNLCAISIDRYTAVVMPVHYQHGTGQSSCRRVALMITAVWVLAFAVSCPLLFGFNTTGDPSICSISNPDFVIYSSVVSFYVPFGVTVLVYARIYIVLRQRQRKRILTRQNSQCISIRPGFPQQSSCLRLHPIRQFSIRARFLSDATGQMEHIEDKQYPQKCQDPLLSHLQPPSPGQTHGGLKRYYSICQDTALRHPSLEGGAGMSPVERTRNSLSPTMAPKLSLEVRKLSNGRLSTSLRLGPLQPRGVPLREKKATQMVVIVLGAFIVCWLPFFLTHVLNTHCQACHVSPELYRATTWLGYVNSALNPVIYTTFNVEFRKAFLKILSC
dopamine D3 receptor, sequence (P19020 whole entry): as above
D2 receptor, sequence (P61169 whole entry): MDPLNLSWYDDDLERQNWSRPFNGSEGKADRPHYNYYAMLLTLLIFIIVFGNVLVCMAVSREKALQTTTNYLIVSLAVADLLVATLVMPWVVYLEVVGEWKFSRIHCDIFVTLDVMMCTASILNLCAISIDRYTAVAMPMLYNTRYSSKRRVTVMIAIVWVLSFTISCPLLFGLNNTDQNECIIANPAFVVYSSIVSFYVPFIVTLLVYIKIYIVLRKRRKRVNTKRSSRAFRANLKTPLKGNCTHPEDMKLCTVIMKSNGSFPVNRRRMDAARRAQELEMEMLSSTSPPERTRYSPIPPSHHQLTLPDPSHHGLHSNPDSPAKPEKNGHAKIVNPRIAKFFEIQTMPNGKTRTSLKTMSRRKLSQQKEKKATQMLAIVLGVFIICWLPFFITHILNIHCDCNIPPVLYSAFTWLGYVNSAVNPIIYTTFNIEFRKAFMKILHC

SMILES: CCCN[C@H]1CCc2nc(N)sc2C1 [Compound 1, Pramipexole]
- High doses at which D2 agonist effects may be observed (dopamine D3 receptor): ~ 1.0 mg/kg
- Decrease in core body temperature (D2 receptor; 0.32 mg/kg): approximately 0.75 °C
- Effect on core body temperature (D2 receptor; doses of 0.32 and 1.0 mg/kg): significant decreases
- Dose at onset of modest D2 agonist activity (D2 receptor): 0.32 mg/kg

SMILES: CCCN1CCC[C@@H]2Cc3n[nH]cc3C[C@H]21 [Compound 2, Quinpirole]
- Selectivity over the D2 receptor (D3 receptor [1]): < 100 fold

SMILES: CCCN(CCC)C1CCc2ccc(O)cc2C1 (centres unmarked) [Compound 3, 7-hydroxy dipropylaminotetralin]
- Selectivity over the D2 receptor (D3 receptor [1]): < 100 fold

SMILES: N#Cc1ccc2c(c1)CCN(CCC1CCC(NC(=O)c3ccnc4ccccc34)CC1)C2 (centres unmarked) [Compound 4]
- Selectivity for D3 over D2 (D3 receptor [1]): ≤ 100 fold

SMILES: Cc1nc(-c2cccc(C(=O)NC3CCC(CCN4CCc5ccc(S(C)(=O)=O)cc5CC4)CC3)c2)no1 (centres unmarked) [Compound 5]
- Selectivity for D3 over D2 (D3 receptor [1]): ≤ 100 fold

SMILES: O=C(NCCCCN1CCN(c2cccc(Cl)c2Cl)CC1)c1ccc2c(c1)Cc1ccccc1-2 [Compound 6]
- Selectivity for D3 over D2 (D3 receptor [1]): ≤ 100 fold

SMILES: CCCN(CC[C@H]1CC[C@H](NC(=O)/C=C/c2ccccc2)CC1)[C@H]1CCc2nc(N)sc2C1 [Compound 10]
- Aqueous solubility [2]: > 50 mg/mL

SMILES: CCCN(CC[C@H]1CC[C@H](NC(=O)c2ccc3ccccc3c2)CC1)[C@H]1CCc2nc(N)sc2C1 [Compound 11]
- Aqueous solubility [2]: > 50 mg/mL

SMILES: CCCN(CC[C@]1(O)CC[C@@H](NC(=O)c2ccc3ccccc3c2)CC1)[C@H]1CCc2nc(N)sc2C1 [Compound 12]
- Selectivity D1-like/D3 (D3 receptor [3]): 7,373

SMILES: CCCN(CC[C@]1(O)CC[C@H](NC(=O)c2ccc3ccccc3c2)CC1)[C@H]1CCc2nc(N)sc2C1 [Compound 13]
- Selectivity D1-like/D3 (D3 receptor [3]): 15,115

SMILES: CCCN(CC[C@H]1C[C@H](NC(=O)c2ccc3ccccc3c2)C1)[C@H]1CCc2nc(N)sc2C1 [Compound 14]
- Selectivity D1-like/D3 (D3 receptor [3]): 14,848

SMILES: CCCN(CC[C@H]1C[C@@H](NC(=O)c2ccc3ccccc3c2)C1)[C@H]1CCc2nc(N)sc2C1 [Compound 15]
- Selectivity D1-like/D3 (D3 receptor [3]): 8,822

SMILES: CCCN(CC[C@]1(O)C[C@@H](NC(=O)c2ccc3ccccc3c2)C1)[C@H]1CCc2nc(N)sc2C1 [Compound 16]
- Dose producing peak levels of yawning (dopamine D3 receptor): 1.0 mg/kg
- solubility (Aqueous solubility): > 100 mg/mL

SMILES: CCCN(CC[C@]1(O)C[C@H](NC(=O)c2ccc3ccccc3c2)C1)[C@H]1CCc2nc(N)sc2C1 [Compound 17]
- Dose producing peak levels of yawning (dopamine D3 receptor): 1.0 mg/kg
- High doses at which D2 agonist effects may be observed (dopamine D3 receptor): ~ 10.0 mg/kg
- Dose active at the D3 receptor (significant yawning activity) (dopamine D3 receptor; lowest active dose): 0.01 mg/kg
- Binding to human D1 receptor (human D1 receptor): no detectable binding
- solubility (Aqueous solubility): > 100 mg/mL
- Effect on core body temperature (D2 receptor; 3.2 mg/kg): no significant effect
- Effect on core body temperature (D2 receptor; 10 mg/kg): significant but a modest effect
- Decrease in core body temperature (D2 receptor; 10 mg/kg): approximately 0.75 °C
- Dose at onset of modest D2 agonist activity (D2 receptor): 10 mg/kg

SMILES: OC1(c2ccc(Cl)cc2)CCN(Cc2c[nH]c3ccccc23)CC1 [L-741,626]
- Effect of antagonist on yawning induced by lower agonist doses (dopamine D3 receptor; pramipexole 0.1 mg/kg and 17 1.0 mg/kg): failed to modulate
- Effect of antagonist on hypothermia induced by compound 17 (D2 receptor; 10 mg/kg compound 17): did not have a significant effect
- Effect of antagonist on hypothermia induced by pramipexole (D2 receptor; in vivo, 0.32 mg/kg): significantly reversed
